{"source": "patent US20240316150A1", "about": "“METHOD FOR PREVENTION OR TREATMENT OF DISEASES CAUSED BY PATHOGEN-[…] PATTERN” (priority 2021, published 2024)", "key": {"type-1 collagen, α-1": {"test_system": "type-1 collagen, α-1", "assay": "Type-1 collagen mRNA in liver, carbon tetrachloride plus LPS mice", "type": "in vivo, BALB/c mice", "conditions": "LPS 0.3 mg/kg i.p. for 2 weeks on carbon tetrachloride injury", "experimental": "In one experiment, adult male BALB/c mice were intraperitoneally injected with escalated dosage of carbon tetrachloride (CC14, 1.0-2.5 ml/kg body weight) for 2 weeks. Then, some adult male BALB/c mice were given additional lipopolysaccharides (LPS, 0.3 mg/kg, i.p.) for 2 weeks. At such condition, some mice were supplemented with cholestyramine at 3%w/w in the chow for 4 weeks. […] In normal liver tissues, HSCs are quiescent, featured as storing vitamin A and producing type-4 collagen and other loose extracellular matrix (ECM). The high expression of collagen and the formation of fibrotic septa are common in various liver diseases. […] Endotoxemia is common in various hepatic fibrosis and cirrhosis, caused by alcohol, drugs, viruses (such as HBV and HCV), and immune system disorders. Therefore, the current disclosure can be applied for treatment of various forms of liver fibrosis."}, "Muc-2": {"test_system": "Muc-2", "assay": "Muc-2 mRNA in ileum (RT-qPCR), carbon tetrachloride plus LPS mice", "type": "in vivo, BALB/c mice", "conditions": "LPS 0.3 mg/kg i.p. for 2 weeks", "experimental": "In one experiment, adult male BALB/c mice were intraperitoneally injected with escalated dosage of carbon tetrachloride (CC14 from 1.0 to 2.5 ml/kg body weight) for an additional 2 weeks. Then, some mice were given lipopolysaccharides (LPS, 0.3 mg/kg, i.p.) for an additional 2 weeks."}, "occludin": {"test_system": "occludin", "assay": "Occludin mRNA in ileum (RT-qPCR), carbon tetrachloride plus LPS mice", "type": "in vivo, BALB/c mice", "conditions": "LPS 0.3 mg/kg i.p. for 2 weeks", "experimental": "The tight junction proteins are essential components of intestinal epithelial cells and the innate immune system. In one experiment, adult male BALB/c mice were intraperitoneally injected with carbon tetrachloride (CC14, 1.0-2.5 ml/kg body weight) for 2 weeks. Then, some mice were given lipopolysaccharides (LPS, 0.3 mg/kg, i.p.) for an additional 2 weeks."}, "interleukin-1β (IL-1β)": {"test_system": "interleukin-1β (IL-1β)", "assay": "IL-1β mRNA in liver, carbon tetrachloride plus LPS mice", "type": "in vivo, BALB/c mice", "conditions": "LPS 0.3 mg/kg i.p. for 2 weeks on carbon tetrachloride injury", "experimental": "In one experiment, adult male BALB/c mice were intraperitoneally injected with escalated levels of carbon tetrachloride (CC14, 1.0-2.5 ml/kg body weight) for 2 weeks. Then, some mice were given lipopolysaccharides (LPS, 0.3 mg/kg, i.p.) for an additional 2 weeks. Under the condition, some mice were supplemented with cholestyramine at 3 w/w. % in the chow for an additional 4 weeks. […] It is known that PAMPs activate many types of cells to produce interleukin-1 (IL-1), leading to fever, cytokine storms, and tissue damage. In this current disclosure, the cationic polymer in the oral administration can be used for sequestration of intestinal endotoxins, which consequently can alleviate drug-induced liver inflammation, a common mechanism of action for many types of liver injury and fibrogenesis."}, "[1]": {"test_system": "α-defensin-5 (DEFA5) produced by Paneth cells", "assay": "α-defensin-5 expression in ileum, carbon tetrachloride plus LPS mice", "type": "in vivo, BALB/c mice", "conditions": "LPS 0.3 mg/kg i.p. for 2 weeks", "experimental": "In one experiment, adult male BALB/c mice were intraperitoneally injected with escalated dosage of carbon tetrachloride (CC14 from 1.0 to 2.5 ml/kg body weight) for 2 weeks. Then, some mice were given lipopolysaccharides (LPS, 0.3 mg/kg, i.p.) for an additional 2 weeks. […] Lower DEFA5 levels worsen gut microbiota into dysbiosis state, and conversely, increased level of endotoxin may contribute to liver inflammation, leading to tissue injury and fibrogenesis."}, "monocytes [2]": {"test_system": "monocytes", "type": "cell-based", "conditions": "Example 26, FIG. 22"}, "monocytes [3]": {"test_system": "monocytes", "type": "cell-based"}, "[4]": {"assay": "Sirius Red staining of liver, carbon tetrachloride plus LPS mice", "type": "in vivo, BALB/c mice", "conditions": "LPS 0.3 mg/kg i.p. for 2 weeks on carbon tetrachloride injury", "experimental": "In another experiment, adult male BALB/c mice were injected intraperitoneally with escalated dosage of carbon tetrachloride (CC14 from 1.0 to 2.5 ml/kg body weight) for 2 weeks. And then some mice were given lipopolysaccharides injection (LPS at 0.3 mg/kg, i.p.) for an additional 2 weeks. Under sustained injury conditions, some mice were supplemented with cholestyramine at 3% w/w in the chow for another 4 weeks. […] It is well known that hepatic injury induced activation of hepatic stellate cells (HSCs) mediate hepatic fibrosis."}, "[5]": {"assay": "Intestinal permeability by FITC levels in bloodstream, carbon tetrachloride mice", "type": "in vivo, BALB/c mice", "conditions": "10 mg twice a week for 8 weeks, continued carbon tetrachloride", "experimental": "In one experiment, adult male BALB/c mice were given intraperitoneal injections of carbon tetrachloride for 4 weeks; while continuing administration of carbon tetrachloride, some mice were given the synthetic human α-defensin-5 (DEFA5) (10 mg, twice a week) for 8 weeks. Finally, the mice were given fluorescein isothiocyanate (FITC). […] Vitamin D deficiency affects the expression of the defensins secreted by Paneth cells, resulting in small intestinal bacterial overgrowth (SIBO) and the translocation of PAMPs into the bloodstream, thereby causing chronic inflammation. Therefore, the defensins, as a therapeutic API, can treat various gastrointestinal disease and alleviate drug-induced liver fibrosis."}, "[6]": {"assay": "Sirius Red staining for liver fibrosis, carbon tetrachloride mice given DEFA5", "type": "in vivo, BALB/c mice", "conditions": "oral 10 mg twice a week for 8 weeks, continued carbon tetrachloride", "description": "Paneth cells secret innate immune substances, such as antimicrobial peptides, to maintain intestinal homeostasis. The epithelial cells of the small intestine and the innate immune substances maintain the gastrointestinal barrier function, protect against the penetration of commensal and pathogenic bacteria, and safeguard intestinal epithelial cells. The antimicrobial peptides can suppress the small intestinal overgrowth of bacteria (SIBO), a common pathologic condition for many metabolic diseases. In one experiment, adult male BALB/c mice were given intraperitoneal injections of carbon tetrachloride for 4 weeks. While continuing administration of carbon tetrachloride, some mice were orally given synthetic human α-defensin-5 (10 mg, twice a week) for an additional 8 weeks (shown in FIG. 26A). […] The mechanism of action by the DEFA5 as API can be explained in part by inhibiting PAMPs, thereby reducing liver inflammation and damage, which in turn reduces the transdifferentiation of HSC and lowers liver fibrosis score."}, "[7]": {"assay": "Bloodstream endotoxin (LAL test), carbon tetrachloride mice given DEFA5", "type": "in vivo, BALB/c mice", "conditions": "10 mg twice a week for 8 weeks, continued carbon tetrachloride", "experimental": "In one experiment, adult male BALB/c mice were given intraperitoneal injections of carbon tetrachloride for 4 weeks. While continuing administration of carbon tetrachloride, some mice were given the synthetic human α-defensin-5 (DEFA5) (10 mg, twice a week) for 8 weeks."}, "gut microbiota": {"test_system": "gut microbiota", "assay": "Distribution of bacterial microbiota in feces, carbon tetrachloride mice given DEFA5", "type": "in vivo, BALB/c mice", "conditions": "10 mg twice a week for 8 weeks", "experimental": "In one experiment, adult male BALB/c mice were given intraperitoneal injections of carbon tetrachloride for 4 weeks; while continuing administration of carbon tetrachloride, some mice were given the synthetic human α-defensin-5 (DEFA5) (10 mg, twice a week) for 8 weeks."}}, "note": "Like-named read-outs stand apart in the source and are kept apart here. Ends that are not written are not given here.", "data": [{"substance": "lipopolysaccharides [LPS]", "values": [{"measurement": "drug-induced cirrhosis, type-I collagen mRNA", "setting": "type-1 collagen, α-1", "value": "exacerbates the drug-induced cirrhosis"}, {"measurement": "mRNA expression of Muc-2 by Goblet cells in ileum tissue", "setting": "Muc-2", "value": "reduced the mRNA expression of Muc-2"}, {"measurement": "mRNA expression of occludin gene in ileum tissues", "setting": "occludin", "value": "suppressed the mRNA expression of occludin gene"}, {"measurement": "drug-induced hepatic inflammation, mRNA expression of IL-1B in the liver", "setting": "interleukin-1β (IL-1β)", "value": "exacerbates the drug-induced hepatic inflammation"}, {"measurement": "expression levels of α-defensin-5 (DEFA5) in ileum tissue", "setting": "[1]", "value": "suppressed the expression levels of α-defensin-5 (DEFA5)"}, {"measurement": "increase of mRNA expression of IL-1B", "setting": "monocytes [2]", "value": "about 9 times"}, {"measurement": "increase of mRNA expression of TNF-α", "setting": "monocytes [3]; Example 25, FIG. 21", "value": "about 8 times"}, {"measurement": "increase of mRNA expression of TNF-α", "setting": "monocytes [3]; Example 27, FIG. 23", "value": "about 10 times"}, {"measurement": "drug-induced cirrhosis, fibrotic histological analysis (Sirius Red)", "setting": "[4]", "value": "exacerbate the drug-induced cirrhosis"}]}, {"substance": "α-defensin-5 (ATCYCRHGRCATRESLSGVCEISGRLYRLCC; not fully specified (bridges); also: three disulfide bonds) [DEFA5, ATCYCRHGRCATRESLSGVCEISGRLYRLCCR, three disulfide bonds; antimicrobial peptide of Paneth cells]", "values": [{"measurement": "intestinal permeability (FITC levels in bloodstream)", "setting": "[5]", "value": "reduce intestinal permeability"}, {"measurement": "liver fibrosis (Sirius Red)", "setting": "[6]", "value": "reduced liver fibrosis caused by liver injury"}, {"measurement": "endotoxin translocation into the bloodstream", "setting": "[7]", "value": "reduced endotoxin translocation into the bloodstream"}, {"measurement": "balance of intestinal bacterial microbiota", "setting": "gut microbiota; continued carbon tetrachloride", "value": "balanced the intestinal bacterial microbiota"}, {"measurement": "abundance of Bacteroidetes", "setting": "gut microbiota; feces", "value": "increasing the abundance"}, {"measurement": "abundance of Firmicutes", "setting": "gut microbiota; feces", "value": "reducing the abundance"}, {"measurement": "abundance of gamma-Proteobacteria", "setting": "gut microbiota; feces", "value": "reducing the abundance"}]}]}
